{"source": "paper PMC5447332", "about": "(Targeted Oncology, 2017)", "key": {"[1]": {"details": "BEZ235 200 mg twice daily; cited from earlier work"}, "[2]": {"details": "preclinical studies; ref not given; cited from earlier work"}, "[3]": {"experiment": "Pharmacokinetics of BEZ235 in plasma, phase Ib combination with everolimus", "assay_type": "in vivo, human (patients with advanced solid tumors)", "details": "for Apparent clearance, CL/F / Cmax / Dose / half-life / AUC(0-t) / AUC(0-inf) / Cmax / Tmax: plasma; for half-life / AUC(0-t) / AUC(0-inf) / Cmax / Tmax: human"}, "[4]": {"details": "whole blood; ref not given; cited from earlier work"}, "[5]": {"experiment": "Pharmacokinetics of everolimus in whole blood when co-administered with BEZ235", "assay_type": "in vivo, human (patients with advanced solid tumors)"}, "[6]": {"details": "cited from earlier work"}, "[7]": {"details": "BEZ235 200 mg/d + everolimus 2.5 mg/d oral, day 1, mean ± SE"}, "[8]": {"details": "BEZ235 200 mg/d + everolimus 2.5 mg/d oral, day 28, mean ± SE"}, "[9]": {"details": "BEZ235 400 mg/d + everolimus 2.5 mg/d oral, day 1, mean ± SE"}, "[10]": {"details": "BEZ235 400 mg/d + everolimus 2.5 mg/d oral, day 28, mean ± SE"}, "[11]": {"details": "BEZ235 800 mg/d + everolimus 2.5 mg/d oral, day 1, mean ± SE"}, "[12]": {"details": "BEZ235 800 mg/d + everolimus 2.5 mg/d oral, day 28, mean ± SE"}, "[13]": {"details": "po, BEZ235 200 mg/d + everolimus 2.5 mg/d oral, day 1, mean ± SE"}, "[14]": {"details": "po, BEZ235 200 mg/d + everolimus 2.5 mg/d oral, day 28, mean ± SE"}, "[15]": {"details": "po, BEZ235 400 mg/d + everolimus 2.5 mg/d oral, day 1, mean ± SE"}, "[16]": {"details": "po, BEZ235 400 mg/d + everolimus 2.5 mg/d oral, day 28, mean ± SE"}, "[17]": {"details": "po, BEZ235 800 mg/d + everolimus 2.5 mg/d oral, day 1, mean ± SE"}, "[18]": {"details": "po, BEZ235 800 mg/d + everolimus 2.5 mg/d oral, day 28, mean ± SE"}, "[19]": {"details": "everolimus 2.5 mg/d oral + BEZ235 200-800 mg/d, day 1, whole blood, mean ± SE"}}, "note": "Values joined by “and” are separate entries in the source; they are usually repeats but may differ in a detail not shown here. Equal entries are not always repeated. “Also recorded” adds a separate entry of the source. Where two headings read alike, the source gives them in different places."}
{"smiles": "Cn1c(=O)n(-c2ccc(C(C)(C)C#N)cc2)c2c3cc(-c4cnc5ccccc5c4)ccc3ncc21", "note": "[BEZ235, dactolisib]", "values": [{"measurement": "AUC0-24", "setting": "[1]", "value": 752.9, "unit": "ng·h/mL"}, {"measurement": "Aqueous solubility", "setting": "[2]", "value": "poor"}, {"measurement": "Apparent clearance, CL/F", "setting": "[3]; [7]", "value": "629.6 ± 278.1", "unit": "L/h"}, {"measurement": "Cmax / Dose", "setting": "[3]; [7]", "value": "0.2 ng/mL/mg and 0.2 ± 0.1 ng/mL/mg"}, {"measurement": "Apparent clearance, CL/F", "setting": "[3]; [8]", "value": "116.3 ± 24.4", "unit": "L/h"}, {"measurement": "Cmax / Dose", "setting": "[3]; [8]", "value": "1.1 ± 0.6", "unit": "ng/mL/mg"}, {"measurement": "Apparent clearance, CL/F", "setting": "[3]; [9]", "value": "644.3 ± 192.9", "unit": "L/h"}, {"measurement": "Cmax / Dose", "setting": "[3]; [9]", "value": "0.3 ng/mL/mg and 0.3 ± 0.1 ng/mL/mg"}, {"measurement": "Apparent clearance, CL/F", "setting": "[3]; [10]", "value": "309.3 ± 241.3", "unit": "L/h"}, {"measurement": "Cmax / Dose", "setting": "[3]; [10]", "value": "0.6 ± 0.5", "unit": "ng/mL/mg"}, {"measurement": "Apparent clearance, CL/F", "setting": "[3]; [11]", "value": "773.9 ± 262.1", "unit": "L/h"}, {"measurement": "Cmax / Dose", "setting": "[3]; [11]", "value": "0.3 ng/mL/mg and 0.3 ± 0.1 ng/mL/mg"}, {"measurement": "Apparent clearance, CL/F", "setting": "[3]; [12]", "value": "355.9 ± 246.6", "unit": "L/h"}, {"measurement": "Cmax / Dose", "setting": "[3]; [12]", "value": "1.1 ± 0.7", "unit": "ng/mL/mg"}, {"measurement": "Drug levels at steady state relative to single dose administration", "setting": "[3]; BEZ235 200-800 mg", "value": "~3", "unit": "fold"}, {"measurement": "half-life", "setting": "[3]; oral, Steady-state half-life, range over 200-800 mg/day", "value": "15 to 43", "unit": "h"}, {"measurement": "AUC(0-t)", "setting": "[3]; po, AUC 0-24, BEZ235 200 mg/d + everolimus 2.5 mg/d oral, day 1, mean ± SE", "value": "433 ± 96", "unit": "ng·h/mL"}, {"measurement": "AUC(0-t)", "setting": "[3]; po, AUC 0-24, BEZ235 200 mg/d + everolimus 2.5 mg/d oral, day 28, mean ± SE", "value": "1470 ± 515", "unit": "ng·h/mL"}, {"measurement": "AUC(0-t)", "setting": "[3]; po, AUC 0-24, BEZ235 400 mg/d + everolimus 2.5 mg/d oral, day 1, mean ± SE", "value": "741 ± 171", "unit": "ng·h/mL"}, {"measurement": "AUC(0-t)", "setting": "[3]; po, AUC 0-24, BEZ235 400 mg/d + everolimus 2.5 mg/d oral, day 28, mean ± SE", "value": "1460 ± 1250", "unit": "ng·h/mL"}, {"measurement": "AUC(0-t)", "setting": "[3]; po, AUC 0-24, BEZ235 800 mg/d + everolimus 2.5 mg/d oral, day 1, mean ± SE", "value": "2080 ± 666", "unit": "ng·h/mL"}, {"measurement": "AUC(0-t)", "setting": "[3]; po, AUC 0-24, BEZ235 800 mg/d + everolimus 2.5 mg/d oral, day 28, mean ± SE", "value": "7800 ± 5610", "unit": "ng·h/mL"}, {"measurement": "AUC(0-inf)", "setting": "[3]; [13]", "value": "468 ± 118", "unit": "ng·h/mL"}, {"measurement": "AUC(0-inf)", "setting": "[3]; [14]", "value": "1490 ± 691", "unit": "ng·h/mL"}, {"measurement": "AUC(0-inf)", "setting": "[3]; [15]", "value": "831 ± 163", "unit": "ng·h/mL"}, {"measurement": "AUC(0-inf)", "setting": "[3]; [16]", "value": "2710 ± 2340", "unit": "ng·h/mL"}, {"measurement": "AUC(0-inf)", "setting": "[3]; [17]", "value": "2170 ± 675", "unit": "ng·h/mL"}, {"measurement": "AUC(0-inf)", "setting": "[3]; [18]", "value": "8880 ± 6590", "unit": "ng·h/mL"}, {"measurement": "Cmax", "setting": "[3]; [13]", "value": "45.2 ± 11.4", "unit": "ng/mL"}, {"measurement": "Cmax", "setting": "[3]; [14]", "value": "214 ± 114", "unit": "ng/mL"}, {"measurement": "Cmax", "setting": "[3]; [15]", "value": "102 ± 22.4", "unit": "ng/mL"}, {"measurement": "Cmax", "setting": "[3]; [16]", "value": "227 ± 198", "unit": "ng/mL"}, {"measurement": "Cmax", "setting": "[3]; [17]", "value": "243 ± 52.7", "unit": "ng/mL"}, {"measurement": "Cmax", "setting": "[3]; [18]", "value": "880 ± 570", "unit": "ng/mL"}, {"measurement": "half-life", "setting": "[3]; po, Terminal half-life, BEZ235 200 mg/d + everolimus 2.5 mg/d oral, day 1, mean ± SE", "value": "3.2 ± 1", "unit": "h"}, {"measurement": "half-life", "setting": "[3]; po, Terminal half-life, BEZ235 200 mg/d + everolimus 2.5 mg/d oral, day 28 (steady state), mean ± SE", "value": "19.2 ± 2.5", "unit": "h"}, {"measurement": "half-life", "setting": "[3]; po, Terminal half-life, BEZ235 400 mg/d + everolimus 2.5 mg/d oral, day 1, mean ± SE", "value": "8.6 ± 1.5", "unit": "h"}, {"measurement": "half-life", "setting": "[3]; po, Terminal half-life, BEZ235 400 mg/d + everolimus 2.5 mg/d oral, day 28 (steady state), mean ± SE", "value": "43.4 ± 10.8", "unit": "h"}, {"measurement": "half-life", "setting": "[3]; po, Terminal half-life, BEZ235 800 mg/d + everolimus 2.5 mg/d oral, day 1, mean ± SE", "value": "5.9 ± 0.7", "unit": "h"}, {"measurement": "half-life", "setting": "[3]; po, Terminal half-life, BEZ235 800 mg/d + everolimus 2.5 mg/d oral, day 28 (steady state), mean ± SE", "value": "15 ± 6.4", "unit": "h"}, {"measurement": "Tmax", "setting": "[3]; [13]", "value": "3.8 ± 1.6", "unit": "h"}, {"measurement": "Tmax", "setting": "[3]; [14]", "value": "2.7 ± 0.7", "unit": "h"}, {"measurement": "Tmax", "setting": "[3]; [15]", "value": "2.5 ± 0.9", "unit": "h"}, {"measurement": "Tmax", "setting": "[3]; [16]", "value": "1.5 ± 0.5", "unit": "h"}, {"measurement": "Tmax", "setting": "[3]; [17]", "value": "2.6 ± 0.8", "unit": "h"}, {"measurement": "Tmax", "setting": "[3]; [18]", "value": 2, "unit": "h"}, {"measurement": "Accumulation higher than anticipated", "setting": "[3]; multiple dosing, day 28", "value": "2–3 fold"}, {"measurement": "Oral bioavailability (oral availability)", "setting": "[3]; patients, SDS sachet, this study", "value": "quite low; also recorded: remained low"}, {"measurement": "Average plasma concentration", "setting": "[3]; steady state, doses of 200 to 800 mg/day", "value": "61 to 324", "unit": "ng/mL"}]}
{"smiles": "CO[C@H]1C[C@@H]2CC[C@@H](C)[C@@](O)(O2)C(=O)C(=O)N2CCCC[C@H]2C(=O)O[C@H]([C@H](C)C[C@@H]2CC[C@@H](OCCO)[C@H](OC)C2)CC(=O)[C@H](C)/C=C(\\C)[C@@H](O)[C@@H](OC)C(=O)[C@H](C)C[C@H](C)/C=C/C=C/C=C/1C", "note": "[Everolimus, everolimus]", "values": [{"measurement": "Binding to erythrocytes", "setting": "[4]", "value": 85, "unit": "%"}, {"measurement": "Increase in dose-normalized AUC0-24 (exposure), combination with BEZ235 compared to everolimus alone", "setting": "[5]; everolimus 2.5 mg/d + BEZ235 vs reported everolimus alone (ref 23)", "value": 1.7, "unit": "fold"}, {"measurement": "Apparent clearance, CL/F", "setting": "[5]; [19]", "value": "24.76 ± 2.91", "unit": "L/h"}, {"measurement": "Cmax / Dose", "setting": "[5]; [19]", "value": "5.63 ± 0.6", "unit": "ng/mL/mg"}, {"measurement": "Cmax / Dose", "setting": "[5]; everolimus 2.5 mg/d oral + BEZ235 200-800 mg/d, day 28, whole blood, mean ± SE", "value": "12.67 ± 2.96", "unit": "ng/mL/mg"}, {"measurement": "Reported everolimus clearance", "setting": "[6]; 5 mg dosed alone", "value": 21.3, "unit": "L/h"}, {"measurement": "Reported everolimus clearance", "setting": "[6]; 10 mg dosed alone", "value": 27.3, "unit": "L/h"}, {"measurement": "Median Tmax", "setting": "[6]; everolimus after oral administration, ref not given", "value": "1 to 2", "unit": "h"}, {"measurement": "Dose-normalized Cmax", "setting": "[6]; everolimus dosed alone, cancer patients", "value": 6.3, "unit": "ng/mL"}, {"measurement": "Oral bioavailability", "setting": "[6]; everolimus, ref not given", "value": "low"}]}
